Values of other authors as cited in patent publication EP4670741A1 (priority 2023, dated 2024).

Legend:
Topoisomerase I = target: T1, Topoisomerase I (Homo sapiens, UniProt P11387); conditions: Topoisomerase I inhibitor
T1 sequence (P11387 1-765): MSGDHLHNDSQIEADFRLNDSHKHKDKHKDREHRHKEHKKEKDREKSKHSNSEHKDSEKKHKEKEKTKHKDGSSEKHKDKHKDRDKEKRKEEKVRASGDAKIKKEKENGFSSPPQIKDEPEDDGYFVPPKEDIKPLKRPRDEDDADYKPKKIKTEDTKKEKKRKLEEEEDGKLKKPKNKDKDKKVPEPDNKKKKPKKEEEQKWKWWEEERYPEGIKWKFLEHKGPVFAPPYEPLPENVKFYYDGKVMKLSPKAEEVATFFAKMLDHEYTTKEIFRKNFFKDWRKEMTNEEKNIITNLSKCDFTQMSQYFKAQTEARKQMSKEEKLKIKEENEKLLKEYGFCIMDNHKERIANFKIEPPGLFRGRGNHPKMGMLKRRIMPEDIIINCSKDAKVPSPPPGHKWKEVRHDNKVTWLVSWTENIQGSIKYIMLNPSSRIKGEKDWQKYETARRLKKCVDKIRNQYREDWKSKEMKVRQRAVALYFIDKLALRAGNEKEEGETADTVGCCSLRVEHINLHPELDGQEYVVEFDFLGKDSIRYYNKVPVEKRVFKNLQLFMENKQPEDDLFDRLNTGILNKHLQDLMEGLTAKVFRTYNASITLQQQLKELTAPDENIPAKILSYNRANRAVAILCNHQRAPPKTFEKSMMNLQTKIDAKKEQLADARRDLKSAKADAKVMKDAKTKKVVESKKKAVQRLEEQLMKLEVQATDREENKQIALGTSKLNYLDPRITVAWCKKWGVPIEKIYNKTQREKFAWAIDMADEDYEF

[1] = tested on: various cancer cell lines; conditions: read-out: IC50 values; 140 cell lines derived from various tumor types; majority of tested cancer cells

| SMILES | IC50 (Topoisomerase I) [nM] | IC50 [1] [nM] |
| --- | --- | --- |
| CC[C@@]1(O)C(=O)OCc2c1cc1n(c2=O)Cc2c-1nc1cc(F)c(C)c3c1c2[C@@H](NC(=O)CO)CC3 [Dxd] | 310 | – |
| CC[C@@]1(O)C(=O)OCc2c1cc1n(c2=O)Cc2cc3cc4c(cc3nc2-1)OCO4 [FL118] | – | < 100 |
